# Data taken from patent US4328242A, “α-(3,4,5-Trimethoxyhenzoyl)thiopropionyl-glycine” (Ausoria Farmaceutici S.r.l., priority 1980, dated 1982).
# Where two headings read alike, the source gives them in different places.
# How the values were obtained:
# [1] = Stability in reducing medium (SO2); assay type: physicochemical; settings: 25 mg/ml, sodium bisulfite calculated as SO2, refluxed three hours
# Description: In the presence of SO2 --solutions containing 25 mg/ml of TBPG and MPG respectively in the presence of sodium bisulfite calculated as SO2 are warmed and refluxed for a period of three hours.
# rats [2] = assay: Protective activity of the liver in the intoxication caused by CCl4 (BSF elimination); assay type: in vivo; settings: rats intoxicated with CCl4; 90 and 180 mg/kg orally (equimolar)
# Description: The animals, that is rats, were intoxicated with CCl4 for a period of seven days. They were treated during the same days and for a subsequent period of seven days with TBPG in the dose of 200 and 400 mg/kg orally and with α-mercaptopropionylglycine in the dose of 90 and 180 mg/kg orally. On the fifteenth day, the rats have been treated with BSF in the amount of 10 mg/kg intravenously.
# Stability to light = assay type: physicochemical; settings: powder form, light of a 60 watt lamp, three months
# [3] = assay type: in vivo; settings: rats, oral route, equimolar doses
# [4] = Stability in solution (acidic, alkaline, oxidizing medium); assay type: physicochemical; settings: 3% hydrogen peroxide, two months
# Stability to moisture = assay type: physicochemical; settings: open vials, 90% relative humidity, a month
# Description: Samples of TBPG and MPG have been maintained in open vials at room temperature under conditions of 90% relative humidity and at 50° C. always with 90% relative humidity. After a month of exposure, the following observations have been made.
# rats [5] = assay: Regenerative action in partial hepatectomy; assay type: in vivo; settings: partial hepatectomy, equimolar doses
# [6] = Isothermic (accelerated) stability according to the method of Garret, TLC; assay type: physicochemical
# Description: The tests of accelerated stability have been carried out with the substance in powder form, that is in glass vials, hermetically closed with a plastic screw cap and also with the substance dissolved in water, that is 500 mg in 10 cc in a transparent glass container of 20 cc capacity closed with a plastic screw cap.
# The production of impurities, if any, due to degradation of the substance, has been determined by means of TLC.
# guinea pigs [7] = assay: Protective activity in subacute bronchitis induced by inhalation of citric acid; assay type: in vivo; settings: 7.5% citric acid inhalation, oral route, equimolar doses
# rats [8] = assay: Action on the period of sleep induced by barbiturates; assay type: in vivo; settings: rats intoxicated with CCl4; equimolar doses
# Description: The activity of TBPG administered for two days in the dose of 200 and 400 mg/kg orally, has been determined on the basis of the reduction of the period of sleep induced by Nembutal on rats intoxicated with CCl4.
# rats [9] = assay: Protective action on chronic bronchitis induced by inhalation of SO2; assay type: in vivo; settings: SO2 aerosol, equimolar dosages
# Description: Bronchopulmonary lesions were induced in the animals by aerosolization of SO2. The animals were then treated for two weeks with TBPG in the dosage of 100 and 400 mg/kg by the oral route, rectal route and by inhalation.
# [10] = Stability at room temperature; assay type: physicochemical; settings: closed containers, 36 months
# Excerpt: Five different samples of TBPG and α-mercaptopropionyl glycine have been preserved at room temperature in closed containers for a period of 36 months. At the end of the storage period, the following properties have been determined: […]
# [11] = solid state as a dry powder and in solution, even at low relative humidity and room temperature; cited from earlier work
# rabbits = assay: Secretory activity in rabbits (bronchial secretion); assay type: in vivo; settings: with respect to the control animals
# Excerpt: This activity has been determined using the method described by E. M. Boyd and C. F. Boyd, modified by P. C. Braga, et al described in Bronchial Hypersecretion, 1973. This activity has been determined every hour for a period of four hours by measuring the amount of bronchial secretion derived from the laryngo-tracheal organs and from the tracheo-bronchial organs of rabbits.
# guinea pigs [12] = assay: Antibronchospastic activity, histamine aerosol; assay type: in vivo; settings: equimolar doses
# Excerpt: Histamine administered in the form of an aerosol has caused in guinea pigs symptoms of broncho-spasm accompanied by convulsions, irreversible collapse and death.
# rats [13] = assay: Bronchosecretolithic activity in rats (sodium fluorescine method); assay type: in vivo; settings: 135 mg/kg intraperitoneally (equimolar)
# Description: The secretolithic activity of TBPG has been determined in comparison to α-mercaptopropionylglycine by administering 300 mg/kg of the substance intraperitonally and comparing with 135 mg/kg of α-mercaptopropionylglycine administered also intraperitoneally. The doses are equimolar. The method is based on the use of sodium fluorescine described by H. M. Mawatari (Experimental Studies on the Expectorant Action of Several Drugs, Kogoshima Daigakeu Igakeu Zasshi 27, 561, 1976).
# [14] = Powder, 60°, read-out: Chromatographic Impurities
# [15] = Powder, 70°, read-out: Chromatographic Impurities
# [16] = Powder, 80°, read-out: Chromatographic Impurities
# [17] = Solution (500 mg in 10 cc water), 60°, read-out: Chromatographic Impurities
# [18] = Solution (500 mg in 10 cc water), 70°, read-out: Chromatographic Impurities
# [19] = Solution (500 mg in 10 cc water), 80°, read-out: Chromatographic Impurities
compound,measurement,setting,value
"CC(S)C(=O)NCC(=O)O (stereo not drawn) [α-mercaptopropionylglycine, 2-mercaptopropionylglycine]",stability in reducing medium,[1],undergoes substantial physico-chemical and organoleptic change
same,"elimination of BSF, compared with TBPG",rats [2],comparable
same,stability to light,Stability to light,"strong yellow color, due to degradation accompanied by an unpleasant odor and taste"
same,concentration in the kidney,[3],high concentrations in the kidney
same,distribution in the organs,[3],sufficiently homogenous
same,stability in oxidizing medium,[4],the change is greater
same,stability to moisture,Stability to moisture; 50° C.,"marked change in color, odor and taste accompanied by degradation products"
same,stability to moisture,Stability to moisture; room temperature (t.a.),significant change of organoleptic properties
same,"regeneration of the hepatic tissue, compared with TBPG",rats [5],comparable
same,Chromatographic Impurities,"[6]; Powder, 60°, 320 hours",Traces
same,degraded at 960 h,[6]; [14],1%
same,degraded at 1280 h,[6]; [14],1%
same,degraded at 1600 h,[6]; [14],2%
same,Chromatographic Impurities,"[6]; Powder, 70°, 120 hours",Traces
same,degraded at 240 h,[6]; [15],1%
same,degraded at 480 h,[6]; [15],2%
same,degraded at 45 h,[6]; [16],1%
same,degraded at 90 h,[6]; [16],1%
same,degraded at 180 h,[6]; [16],2%
same,Chromatographic Impurities,"[6]; Solution (500 mg in 10 cc water), 60°, 0 hours",Absent
same,degraded at 320 h,"[6]; Solution (500 mg in 10 cc water), 60°, 320 hours, read-out: Chromatographic Impurities",0.5%
same,degraded at 640 h,"[6]; Solution (500 mg in 10 cc water), 60°, 640 hours, read-out: Chromatographic Impurities",0.6%
same,degraded at 960 h,[6]; [17],1%
same,degraded at 1280 h,[6]; [17],1.5%
same,degraded at 1600 h,[6]; [17],2.5%
same,degraded at 180 h,[6]; [18],1%
same,degraded at 240 h,[6]; [18],2%
same,degraded at 480 h,[6]; [18],2.5%
same,degraded at 45 h,[6]; [19],1%
same,degraded at 90 h,[6]; [19],2.5%
same,degraded at 120 h,"[6]; Solution (500 mg in 10 cc water), 80°, 120 hours, read-out: Chromatographic Impurities",1.5%
same,efficacy compared with TBPG,guinea pigs [7],essentially overlapping
same,"reduction of the period of sleep induced by Nembutal, compared with TBPG",rats [8],essentially comparable
same,"protection of the bronchi and lungs, compared with TBPG",rats [9],Analogous results
same,"organoleptic properties (taste, odor)",[10],undergo substantial change
same,stability on storage,[11],low stability
same,laryngo-tracheal secretion,rabbits,P 0.05 with respect to the control animals
same,tracheo-bronchial secretion,rabbits,n.s.
same,antibronchospastic efficacy compared with TBPG,guinea pigs [12],efficacy comparable
same,bronchosecretolithic activity,rats [13],15.2%
